Assay results: ChEMBL document CHEMBL1201862, “PubChem BioAssay data set” (2004)
Active and inactive are the calls of the source.

How the values were obtained:
[1] = NIH-3T3 fibroblast cytotoxicity, dose response, cytotoxicity control, cell-based, fluorescence, Alamar Blue, secondary assay (AID 2327); type: functional;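 further: NIH-3T3 mouse fibroblasts cultured with fluconazole at 8 µg/mL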
[2] = target: Induced myeloid leukemia cell differentiation protein Mcl-1 (Homo sapiens, UniProt Q07820); assay: blockers of MCL1 binding to BIM peptide – biochemical, fluorescence polarization, BIM-BH3 peptide, 1536-well, dose response (AID 2217)
Bcl-2-like protein 1 = Bcl-2-like protein 1 (Homo sapiens, UniProt Q07817); assay: blockers of BCLXL peptide binding – biochemical, fluorescence polarization, 1536-well, selectivity assay for MCL1 inhibitor project, dose response (AID 2218)
[3] = fluconazole-exposed Candida albicans growth modulators – fluorescence, retest, confirmation (AID 2467); type: functional, cell-based
[4] = target: Epstein-Barr nuclear antigen 1 (Epstein-Barr virus (strain B95-8) (HHV-4) (Human herpesvirus 4), UniProt P03211); assay: inhibition of EBV nuclear antigen 1 DNA binding – biochemical, fluorescence polarization, 1536-well, dose response (AID 2381); parameters: species or system human gammaherpesvirus 4;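 further: fluorescence polarization of a Cy5 DNA probe bound by EBNA-1 protein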
[5] = target: Lytic switch protein BZLF1 (Epstein-Barr virus (strain B95-8) (HHV-4) (Human herpesvirus 4), UniProt P03206); assay: inhibition of BZLF1 ZTA DNA binding – biochemical, fluorescence polarization, Epstein-Barr virus, 1536-well, counter-screen for EBNA-1 inhibitor project, dose response (AID 2377); parameters: species or system human gammaherpesvirus 4;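 further: fluorescence polarization of Cy5-labelled ZRE DNA probe bound by purified Zta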
Sequence of Lytic switch protein BZLF1 (P03206 whole entry): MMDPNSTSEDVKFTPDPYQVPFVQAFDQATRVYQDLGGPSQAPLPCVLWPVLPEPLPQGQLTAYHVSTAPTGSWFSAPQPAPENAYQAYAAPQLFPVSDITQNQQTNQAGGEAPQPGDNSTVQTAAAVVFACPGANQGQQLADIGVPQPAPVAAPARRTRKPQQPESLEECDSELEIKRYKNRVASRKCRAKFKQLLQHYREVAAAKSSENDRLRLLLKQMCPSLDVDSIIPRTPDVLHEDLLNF

Sequence of Bcl-2-like protein 1 (Q07817 whole entry): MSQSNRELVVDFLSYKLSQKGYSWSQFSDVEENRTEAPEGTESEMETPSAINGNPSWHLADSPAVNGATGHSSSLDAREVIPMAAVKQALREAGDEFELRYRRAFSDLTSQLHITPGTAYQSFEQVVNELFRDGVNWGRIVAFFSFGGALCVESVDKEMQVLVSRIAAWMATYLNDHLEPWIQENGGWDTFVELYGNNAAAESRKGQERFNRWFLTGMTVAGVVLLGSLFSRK
Sequence of Induced myeloid leukemia cell differentiation protein Mcl-1 (Q07820 whole entry): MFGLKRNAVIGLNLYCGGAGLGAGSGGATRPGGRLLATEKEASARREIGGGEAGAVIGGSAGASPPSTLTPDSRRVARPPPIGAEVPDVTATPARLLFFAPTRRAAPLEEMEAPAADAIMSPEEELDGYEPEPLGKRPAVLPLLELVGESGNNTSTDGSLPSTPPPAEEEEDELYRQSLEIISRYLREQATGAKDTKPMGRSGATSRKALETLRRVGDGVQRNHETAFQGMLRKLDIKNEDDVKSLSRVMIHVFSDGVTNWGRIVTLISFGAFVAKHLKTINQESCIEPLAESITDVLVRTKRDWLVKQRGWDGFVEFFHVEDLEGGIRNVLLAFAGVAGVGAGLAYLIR
Sequence of Epstein-Barr nuclear antigen 1 (P03211 whole entry): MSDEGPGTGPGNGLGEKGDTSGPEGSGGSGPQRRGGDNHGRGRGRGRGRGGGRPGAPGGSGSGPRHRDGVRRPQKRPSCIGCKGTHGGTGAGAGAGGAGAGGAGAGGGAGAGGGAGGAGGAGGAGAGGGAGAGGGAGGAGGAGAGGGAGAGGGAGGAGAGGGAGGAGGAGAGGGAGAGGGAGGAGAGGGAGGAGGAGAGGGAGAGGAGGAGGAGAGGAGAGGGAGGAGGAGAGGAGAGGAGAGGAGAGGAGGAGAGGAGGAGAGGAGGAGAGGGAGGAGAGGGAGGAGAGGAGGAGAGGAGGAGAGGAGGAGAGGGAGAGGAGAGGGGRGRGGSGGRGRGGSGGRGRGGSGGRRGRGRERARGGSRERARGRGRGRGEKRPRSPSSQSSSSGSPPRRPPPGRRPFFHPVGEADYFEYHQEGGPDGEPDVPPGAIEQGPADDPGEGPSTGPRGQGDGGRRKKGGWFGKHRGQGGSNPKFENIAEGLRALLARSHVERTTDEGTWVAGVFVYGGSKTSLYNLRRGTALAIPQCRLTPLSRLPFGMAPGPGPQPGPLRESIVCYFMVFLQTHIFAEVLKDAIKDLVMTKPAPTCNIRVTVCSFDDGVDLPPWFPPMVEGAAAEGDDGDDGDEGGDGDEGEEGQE

IC50 [4]	IC50 [5]	Compound	EC50 [1]	IC50 [2]	IC50 (Bcl-2-like protein 1)	EC50 [3]
		CC12CCC(C(=O)N(NC(=O)c3ccccc3O)C1=O)C2(C)C (stereo unspecified)	> 160 µM (inactive)	> 109 µM (not active)	> 109 µM (not active)	> 38 µM (not active)
16.4 µM (not active)	> 111 µM (not active)	COc1ccc(-c2nonc2NC(=O)c2oc3ccc(F)cc3c2C)cc1OC				
